Test results published in patent publication US7456205B2, “Benzopyran compounds, process for preparing the same and their use” (Shanghai Institute of Materia Medica, Chinese Academy of …, priority 2003, dated 2008).

Experiments:
3T3-L1 cells = test: Insulin-sensitizing activity in 3T3-L1 preadipocyte model, triglyceride accumulation as indication of cell differentiation; assay type: cell-based; details: for The Percentage of Triglyceride Increased in 3T3-L1 Cells: with IBMX, DEX and insulin, average of 3 pores (rosiglitazone n = 22, mean ± SD); for insulin-sensitizing activity: verbal summary of Table 2
Description: The insulin-sensitizing agents can promote the differentiation of pre-adipocytes toward adipocyte. Thus insulin-sensitizing agents could be identified with the insex of the differentiation of pre-adipocytes. Following the methods reported in the literature [Kletzein B F. Mol. Pharm. 1991, 41, 393], the insulin-sensitizing activities of the compounds of formula (I) of the present invention were evaluated in 3T3-L1 preadipocyte model with triglyceride accumulation in cells as the indication of cell differentiation.
The 3T3-L1 cells were incubated in DMEM (Dulbecco's Modified Eagle's Medium) containing 10% NBS (newborn calf serum) and subcultured every 3 days. The cells were transferred to 24-pore plates, and after the pores were filled completely, the cells were treated with IBMX (isobutylmethylxanthine) (0.5 mmol/L), DEX (dexamethasone) (1 μmol/L) and insulin (1.0 μmol/L) for 48 h, meanwhile different amounts of test compounds were added into. The cells were incubated continuously until the end of the experiment. Cells were collected and the contents of triglyceride and protein therein were determined by colorimetry. Enhancements of triglyceride in cells after drug-administrating were calculated.
The positive control group was rosiglitazone, and the solvent control group was a culturing medium containing 0.1% of DMSO. […] Thus, the derivatives of the benzopyran compounds of the present invention can be used to control the blood glucose level in type II diabetes patients and inhibit the occurrence of complications caused by the type II diabetes.

SMILES: COC(=O)c1cc2ccc(OCc3ccccc3)cc2oc1=O [Compound 1, 7-benzyloxyl-2-oxo-2H-1-benzopyran-3-carboxylic acid methyl ester]
- The Percentage of Triglyceride Increased in 3T3-L1 Cells (3T3-L1 cells; test compound 0.01 μmol/L): −5.73%
- The Percentage of Triglyceride Increased in 3T3-L1 Cells (3T3-L1 cells; test compound 0.1 μmol/L): −0.43%
- The Percentage of Triglyceride Increased in 3T3-L1 Cells (3T3-L1 cells; test compound 1 μmol/L): 7.93%
- melting point: 129 to 130 °C

SMILES: O=C(O)c1cc2ccc(OCc3ccccc3)cc2oc1=O [Compound 2, 7-benzyloxyl-2-oxo-2H-1-benzopyran-3-carboxylic acid]
- The Percentage of Triglyceride Increased in 3T3-L1 Cells (3T3-L1 cells; test compound 0.01 μmol/L): 20.86%
- The Percentage of Triglyceride Increased in 3T3-L1 Cells (3T3-L1 cells; test compound 0.1 μmol/L): 18.31%
- The Percentage of Triglyceride Increased in 3T3-L1 Cells (3T3-L1 cells; test compound 1 μmol/L): 14.63%

SMILES: COC(=O)c1cc2ccc(OCCc3ccccc3)cc2oc1=O [Compound 3, 7-(2-phenyl)ethoxyl-2-oxo-2H-1-benzopyran-3-carboxylic acid methyl ester]
- The Percentage of Triglyceride Increased in 3T3-L1 Cells (3T3-L1 cells; test compound 0.01 μmol/L): 4.57%
- The Percentage of Triglyceride Increased in 3T3-L1 Cells (3T3-L1 cells; test compound 0.1 μmol/L): −2.61%
- The Percentage of Triglyceride Increased in 3T3-L1 Cells (3T3-L1 cells; test compound 1 μmol/L): −5.50%
- melting point: 100 to 101 °C

SMILES: CCc1ccc(CCOc2ccc3cc(C(=O)OC)c(=O)oc3c2)nc1 [Compound 4, 7-[2-(5-ethyl-2-pyridine)ethyoxyl]-2-oxo-2H-1-benzopyran-3-carboxylic acid methyl ester]
- The Percentage of Triglyceride Increased in 3T3-L1 Cells (3T3-L1 cells; test compound 0.01 μmol/L): 7.26%
- The Percentage of Triglyceride Increased in 3T3-L1 Cells (3T3-L1 cells; test compound 0.1 μmol/L): 11.55%
- The Percentage of Triglyceride Increased in 3T3-L1 Cells (3T3-L1 cells; test compound 1 μmol/L): 17.71%

SMILES: COC(=O)c1cc2ccc(OCCn3ccc4ccccc43)cc2oc1=O [Compound 5, 7-[2-(1-indole)ethoxyl]-2-oxo-2H-1-benzopyran-3-carboxylic acid methyl ester]
- The Percentage of Triglyceride Increased in 3T3-L1 Cells (3T3-L1 cells; test compound 0.01 μmol/L): 7.88%
- The Percentage of Triglyceride Increased in 3T3-L1 Cells (3T3-L1 cells; test compound 0.1 μmol/L): 27.58%
- The Percentage of Triglyceride Increased in 3T3-L1 Cells (3T3-L1 cells; test compound 1 μmol/L): 34.74%

SMILES: COC(=O)c1cc2ccc(OCCc3nc(-c4ccccc4)oc3C)cc2oc1=O [Compound 6, 7-[2-(5-methyl-2-phenyl-4-oxazole)ethoxyl]-2-oxo-2H-1-benzopyran-3-carboxylic acid methyl ester]
- The Percentage of Triglyceride Increased in 3T3-L1 Cells (3T3-L1 cells; test compound 0.01 μmol/L): 27.04%
- The Percentage of Triglyceride Increased in 3T3-L1 Cells (3T3-L1 cells; test compound 0.1 μmol/L): 67.24%
- The Percentage of Triglyceride Increased in 3T3-L1 Cells (3T3-L1 cells; test compound 1 μmol/L): 52.45%
- insulin-sensitizing activity (3T3-L1 cells): stronger insulin-sensitizing activity

SMILES: O=C(O)c1cc2ccc(OCCc3ccccc3)cc2oc1=O [Compound 7, 7-(2-phenyl)ethoxyl-2-oxo-2H-1-benzopyran-3-carboxylic acid]
- The Percentage of Triglyceride Increased in 3T3-L1 Cells (3T3-L1 cells; test compound 0.01 μmol/L): 7.97%
- The Percentage of Triglyceride Increased in 3T3-L1 Cells (3T3-L1 cells; test compound 0.1 μmol/L): −1.10%
- The Percentage of Triglyceride Increased in 3T3-L1 Cells (3T3-L1 cells; test compound 1 μmol/L): −6.29%

SMILES: CCc1ccc(CCOc2ccc3cc(C(=O)O)c(=O)oc3c2)nc1 [Compound 8, 7-[2-(5-ethyl-2-pyridine)ethyoxyl]-2-oxo-2H-1-benzopyran-3-carboxylic acid]
- The Percentage of Triglyceride Increased in 3T3-L1 Cells (3T3-L1 cells; test compound 0.01 μmol/L): 12.25%
- The Percentage of Triglyceride Increased in 3T3-L1 Cells (3T3-L1 cells; test compound 0.1 μmol/L): 3.67%
- The Percentage of Triglyceride Increased in 3T3-L1 Cells (3T3-L1 cells; test compound 1 μmol/L): 5.66%

SMILES: O=C(O)c1cc2ccc(OCCn3ccc4ccccc43)cc2oc1=O [Compound 9, 7-[2-(1-indole)ethoxyl]-2-oxo-2H-1-benzopyran-3-carboxylic acid]
- The Percentage of Triglyceride Increased in 3T3-L1 Cells (3T3-L1 cells; test compound 0.01 μmol/L): −5.25%
- The Percentage of Triglyceride Increased in 3T3-L1 Cells (3T3-L1 cells; test compound 0.1 μmol/L): −8.42%
- The Percentage of Triglyceride Increased in 3T3-L1 Cells (3T3-L1 cells; test compound 1 μmol/L): −12.95%

SMILES: Cc1oc(-c2ccccc2)nc1CCOc1ccc2cc(C(=O)O)c(=O)oc2c1 [Compound 10, 7-[2-(5-methyl-2-phenyl-4-oxazole)ethoxyl]-2-oxo-2H-1-benzopyran-3-carboxylic acid]
- The Percentage of Triglyceride Increased in 3T3-L1 Cells (3T3-L1 cells; test compound 0.01 μmol/L): −3.28%
- The Percentage of Triglyceride Increased in 3T3-L1 Cells (3T3-L1 cells; test compound 0.1 μmol/L): 26.68%
- The Percentage of Triglyceride Increased in 3T3-L1 Cells (3T3-L1 cells; test compound 1 μmol/L): 32.30%

SMILES: COC(=O)C1Cc2ccc(OCCc3ccccc3)cc2OC1=O (centres unmarked) [Compound 11, 7-(2-phenyl)ethoxyl-3,4-dihydro-2-oxo-4H-1-benzopyran-3-carboxylic acid methyl ester]
- The Percentage of Triglyceride Increased in 3T3-L1 Cells (3T3-L1 cells; test compound 0.01 μmol/L): −9.13%
- The Percentage of Triglyceride Increased in 3T3-L1 Cells (3T3-L1 cells; test compound 0.1 μmol/L): 12.90%
- The Percentage of Triglyceride Increased in 3T3-L1 Cells (3T3-L1 cells; test compound 1 μmol/L): 14.10%

SMILES: CCc1ccc(CCOc2ccc3c(c2)OC(=O)C(C(=O)OC)C3)nc1 (centres unmarked) [Compound 12, 7-[2-(5-ethyl-2-pyridine)ethyoxyl]-3,4-dihydro-2-oxo-4H-1-benzopyran-3-carboxylic acid methyl ester]
- The Percentage of Triglyceride Increased in 3T3-L1 Cells (3T3-L1 cells; test compound 0.01 μmol/L): 4.13%
- The Percentage of Triglyceride Increased in 3T3-L1 Cells (3T3-L1 cells; test compound 0.1 μmol/L): −2.40%
- The Percentage of Triglyceride Increased in 3T3-L1 Cells (3T3-L1 cells; test compound 1 μmol/L): 2.53%

SMILES: COC(=O)C1Cc2ccc(OCCc3nc(-c4ccccc4)oc3C)cc2OC1=O (centres unmarked) [Compound 13, 7-[2-(5-methyl-2-phenyl-4-oxazole)ethoxyl]-3,4-dihydro-2-oxo-4H-1-benzopyran-3-carboxylic acid methyl ester]
- The Percentage of Triglyceride Increased in 3T3-L1 Cells (3T3-L1 cells; test compound 0.01 μmol/L): 28.33%
- The Percentage of Triglyceride Increased in 3T3-L1 Cells (3T3-L1 cells; test compound 0.1 μmol/L): 52.92%
- The Percentage of Triglyceride Increased in 3T3-L1 Cells (3T3-L1 cells; test compound 1 μmol/L): 64.69%
- insulin-sensitizing activity (3T3-L1 cells): stronger insulin-sensitizing activity

SMILES: COC(=O)C1Cc2ccc(OCc3ccc(C(F)(F)F)cc3)cc2OC1=O (centres unmarked) [Compound 14, 7-(4-trifluoromethylbenzyloxyl)-3,4-dihydro-2-oxo-4H-1-benzopyran-3-carboxylic acid methyl ester]
- The Percentage of Triglyceride Increased in 3T3-L1 Cells (3T3-L1 cells; test compound 0.01 μmol/L): 19.33%
- The Percentage of Triglyceride Increased in 3T3-L1 Cells (3T3-L1 cells; test compound 0.1 μmol/L): −16.81%
- The Percentage of Triglyceride Increased in 3T3-L1 Cells (3T3-L1 cells; test compound 1 μmol/L): −2.69%

SMILES: COC(=O)c1cc2ccc(OCCN(C)C(=O)OC(C)(C)C)cc2oc1=O [Compound 15, 7-[2-(N-tert-butoxycarbonyl-N-methylamino)ethoxyl]-2-oxo-2H-1-benzopyran-3-carboxylic acid methyl ester]
- The Percentage of Triglyceride Increased in 3T3-L1 Cells (3T3-L1 cells; test compound 0.01 μmol/L): 26.38%
- The Percentage of Triglyceride Increased in 3T3-L1 Cells (3T3-L1 cells; test compound 0.1 μmol/L): 26.73%
- The Percentage of Triglyceride Increased in 3T3-L1 Cells (3T3-L1 cells; test compound 1 μmol/L): 44.70%
- melting point: 128 to 129 °C

SMILES: COC(=O)C1Cc2ccc(OCCN(C)c3nc4ccccc4o3)cc2OC1=O (centres unmarked) [Compound 16, 7-[2-[N-methyl-N-(2-benzoxazole)amino]ethoxyl]-3,4-dihydro-2-oxo-4H-1-benzopyran-3-carboxylic acid methyl ester]
- The Percentage of Triglyceride Increased in 3T3-L1 Cells (3T3-L1 cells; test compound 0.01 μmol/L): 11.01%
- The Percentage of Triglyceride Increased in 3T3-L1 Cells (3T3-L1 cells; test compound 0.1 μmol/L): 29.32%
- The Percentage of Triglyceride Increased in 3T3-L1 Cells (3T3-L1 cells; test compound 1 μmol/L): 25.09%
- melting point: 88 to 90 °C

SMILES: Cc1oc(-c2ccccc2)nc1CCOc1ccc2cc(C(=O)OC(C)(C)C)c(=O)oc2c1 [Compound 17, 7-[2-(5-methyl-2-phenyl-4-oxazole)ethoxyl]-2-oxo-2H-1-benzopyran-3-carboxylic acid tert-butyl ester]
- The Percentage of Triglyceride Increased in 3T3-L1 Cells (3T3-L1 cells; test compound 0.01 μmol/L): 18.33%
- The Percentage of Triglyceride Increased in 3T3-L1 Cells (3T3-L1 cells; test compound 0.1 μmol/L): 28.20%
- The Percentage of Triglyceride Increased in 3T3-L1 Cells (3T3-L1 cells; test compound 1 μmol/L): 33.01%
- insulin-sensitizing activity (3T3-L1 cells): stronger insulin-sensitizing activity

SMILES: Cc1oc(-c2ccccc2)nc1CCOc1ccc2c(c1)OC(=O)C(C(=O)O)C2 (centres unmarked) [Compound 18, 7-[2-(5-methyl-2-phenyl-4-oxazole)ethoxyl]-3,4-dihydro-2-oxo-4H-1-benzopyran-3-carboxylic acid]
- The Percentage of Triglyceride Increased in 3T3-L1 Cells (3T3-L1 cells; test compound 0.01 μmol/L): 18.65%
- The Percentage of Triglyceride Increased in 3T3-L1 Cells (3T3-L1 cells; test compound 0.1 μmol/L): 29.28%
- The Percentage of Triglyceride Increased in 3T3-L1 Cells (3T3-L1 cells; test compound 1 μmol/L): 30.24%
- insulin-sensitizing activity (3T3-L1 cells): stronger insulin-sensitizing activity
